Measured values published in patent EP0095833A2 (priority 1982, dated 1983).
Like-named read-outs stand apart in the source and are kept apart here.

Key:
[1] = tested on: Sindbis virus; conditions: BHK-21 cells; 0.1 mM chloroquine or 10 µg of cytochalasin B for thirty minutes before infection; Sindbis virus 5,000 PFU; 30 or 60 minutes at room temperature; cited from earlier work
[2] = tested on: vesicular stomatitis virus; conditions: cited from earlier work
[3] = tested on: VSV; assay type: cell-based
[4] = tested on: VSV; assay type: cell-based; remark: listed apart in the source
[5] = tested on: VSV; assay type: cell-based; conditions: HeLa cells, Figure 2
[6] = tested on: VSV; assay type: cell-based; conditions: 20 mM
[7] = tested on: Vaccinia virus; assay type: cell-based
[8] = tested on: Reovirus III; assay type: cell-based
[9] = tested on: VSV
[10] = tested on: Polio virus; assay type: cell-based
[11] = tested on: VSV; assay type: cell-based; conditions: for Titer obtained (PFU/ml): pretreated for 2 hours, one-step growth (18 hours)
[12] = 20 mM NH4Cl from the second hour before infection to the eighteenth hour after, Figure 7 panel A
[13] = 20 mM NH4Cl from the second hour before inoculation to the seventh hour after, Figure 5 panel A
[14] = 20 mM, added from 2 hours before inoculation

In the case of `CCN(CC)CCCC(C)Nc1ccnc2cc(Cl)ccc12` (centres unmarked) [chloroquine], the “internalization by endocytosis of the virus” value [1] is listed as “either enhanced or took place normally”.

For `C=C1[C@@H](C)[C@H]2[C@H](Cc3ccccc3)NC(=O)[C@]23OC(=O)/C=C/[C@H](O)CCC[C@@H](C)C/C=C/[C@H]3[C@@H]1O` [cytochalasin B], the “yields of VSV” value [2] is listed as “the same as untreated (control) cells” and the “internalization by endocytosis of the virus” value [1] is listed as “blocked”.

For `Cl.N` [NH4Cl, ammonium chloride], the “infection (viral m RNAs and 42S mature RNA in cytoplasmic extracts)” value ([3]; 20 mM NH4Cl from immediately after inoculation to the eighteenth hour after, Figure 7 panel B) was “slight reduction”, the “42S viral RNA in cytoplasmic extracts” value [3, 12] was “do not contain” and the “viral m RNAs in cytoplasmic extracts” value [3, 12] was “do not contain”. The “amount of 42S mature viral RNA in cytoplasmic extracts” value ([3]; 20 mM NH4Cl from the second hour before infection to the sixth hour after, 18 hours after infection, Figure 6 panel B) was “lower than in untreated cells”, the “viral m RNAs (31S, 17S, 14.5S, 12S) in cytoplasmic extracts” value ([3]; 20 mM NH4Cl from the second hour before infection to the sixth hour after, 18 hours after infection, versus untreated, Figure 6 panel B) was “more” and the “complete virus (625S) in cytoplasmic extract” value [3, 13] was “large amount”. The “viral cores (120s) in cytoplasmic extract” value [3, 13] was “negligible amount”, the “viral cores and virions in supernatant” value ([4]; treated from the second hour before inoculation to the eighteenth hour after, Figure 3 panel B) was “neither viral cores nor virions” and the virions in supernatant ([4]; treated from the second hour before to the sixth hour after inoculation, 18 hours, versus untreated, Figure 3 panel A) was “lower amount”. For the same compound, the “viral cores in supernatant” value ([4]; treated immediately after inoculation, 18 hours, versus untreated, Figure 3 panel B) was “lower level”, the “lag period before rather normal viral RNA synthesis” value ([5]; 20 mM NH4Cl from 2 hours before inoculation, withdrawal at the sixth hour after inoculation) was 6 h and the “viral RNA synthesis” value ([5]; 20 mM NH4Cl from 2 hours before to 18 hours after inoculation) was “seriously reduced”. For the same compound, the “viral RNA synthesis” value ([5]; 20 mM NH4Cl only added after inoculation, until 18 hours) was “strongly reduced”, the “development of VSV” value ([6]; added from 2 hours before inoculation) was “completely inhibits” and the “development of VSV, compared with Table I” value ([6]; in L, BHK, and BGM cells) was “Identical results”. For the same compound, the “viral development of Vaccinia” value [7, 14] was “No action”, the “Virions produced in infected 20mM NH4Cl* treated cells” value ([7]; L cells, Vaccinia virus, 20 mM NH4Cl from 2 hours before inoculation, end of one step growth) was 3.5 x 10^6PFU/ml and the “development of Reovirus” value [8] was “completely inhibits”. The “development of Reovirus III, compared with Table I” value ([8]; 20 mM) was “Identical results”, the “virucidal effect against VSV” value ([9]; 20 mM NH4Cl in PBS, incubated at 37°C, titrated at various times) was “no virucidal effect” and the “viral development of Polio virus” value [10, 14] was “No action”. For the same compound, the “Virions produced in infected 20mM NH4Cl* treated cells” value ([10]; BGM cells, Polio virus, 20 mM NH4Cl from 2 hours before inoculation, end of one step growth) was 4.15 x 10^8PFU/ml.

For `Cc1cc2nc3ccc(N(C)C)cc3nc2cc1N.Cl` [Neutral Red], the “Titer obtained (PFU/ml)” value ([11]; 70 µM Neutral Red) was 9.0 x 10^7 PFU/ml, the “growth of VSV” value ([11]; 100 µM (29 µg/ml)) was “completely inhibits” and the “Titer obtained (PFU/ml)” value ([11]; 100 µM Neutral Red) was 0 PFU/ml. For the same compound, the virucidal effect ([9]; procedure of Example III, at these concentrations (70 µM and 100 µM)) was “no virucidal effect”.
